Measured values reported in patent publication US7429582B2, “Dihydro[1,4]oxazino[2,3,4-hi]indazole derivatives as 5-hydroxytryptamine-6 ligands and use thereof in the treatment of attention deficit disorders” (Wyeth, priority 2006, dated 2008).
Counter-ions that a name gives are not always drawn.

The compounds below were run against T1, human cloned 5-HT6 receptors (Homo sapiens, UniProt P50406). Conditions: [3H]-LSD 3.0 nM, 120 minutes at room temperature, Hela cell membranes; read-out: 5-HT6 Binding Ki.
T1 construct: expressed in transfected cells; host or cells: Hela cells
T1 sequence (P50406 whole entry): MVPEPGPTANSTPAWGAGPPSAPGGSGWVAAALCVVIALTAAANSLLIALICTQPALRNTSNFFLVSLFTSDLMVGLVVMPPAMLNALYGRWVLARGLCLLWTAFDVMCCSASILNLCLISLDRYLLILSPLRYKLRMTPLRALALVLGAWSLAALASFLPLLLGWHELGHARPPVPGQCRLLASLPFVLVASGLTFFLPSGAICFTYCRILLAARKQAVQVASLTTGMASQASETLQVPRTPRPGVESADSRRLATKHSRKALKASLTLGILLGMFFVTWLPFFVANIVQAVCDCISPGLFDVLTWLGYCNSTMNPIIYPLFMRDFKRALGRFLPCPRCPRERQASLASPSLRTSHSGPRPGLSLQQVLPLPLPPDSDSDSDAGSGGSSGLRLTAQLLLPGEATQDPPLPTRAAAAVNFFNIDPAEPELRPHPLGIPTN

| Ki [nM] | SMILES |
| --- | --- |
| 1.6 | CN(C)CC1Cn2nc(S(=O)(=O)c3cccc4ccccc34)c3cccc(c32)O1 (stereo not drawn) [Example 6, N,N-dimethyl-1-[6-(1-naphthylsulfonyl)-2,3-dihydro[1,4]oxazino[2,3,4-hi]indazol-2-yl]methanamine Hydrochloride] |
| 160 | O=S(=O)(c1cccc2ccccc12)c1nn2c3c(cccc13)OC(CN1CCCCC1)C2 (stereo not drawn) [Example 8, 6-(1-Naphthylsulfonyl)-2-(piperidin-1-1ylmethyl)-2,3-dihydro[1,4]oxazino[2,3,4-hi]indazole Hydrochloride] |

| SMILES | Ki [nM] |
| --- | --- |
| O=S(=O)(c1cccc2ccccc12)c1nn2c3c(cccc13)OC(CN1CCCC1)C2 (stereo not drawn) [Example 7, 6-(1-Naphthylsulfonyl)-2-(Pyrrolidin-1-1ylmethyl)-2,3-dihydro[1,4]oxazino[2,3,4-hi]indazole Hydrochloride] | 3 |
